Assay results published in publication PMC9437973 (Journal of medicinal chemistry, 2021).
“Also recorded” adds a separate entry of the source.

Tests used:
GluN1/2A = details: cited from earlier work
GluN1/2B = details: cited from earlier work
GluN1/2C = details: cited from earlier work
GluN1/2D = details: cited from earlier work
GluN1/2B NMDA receptor = GluN1/2B NMDA receptor (Rattus norvegicus, UniProt P35439); assay type: cell-based; details: for current response to analog alone at GluN1/2B: 10 μM analog, continuous presence of 300 μM L-Glu
GluN1/2D NMDA receptor = GluN1/2D NMDA receptor (Rattus norvegicus, UniProt P35439); assay type: cell-based
[1] = target: Gly binding site in GluN1/2B receptors (Rattus norvegicus, UniProt P35439+Q00960); test: Inhibition of Gly responses at recombinant GluN1/2B; assay type: cell-based
GluN1^FATL/3A receptors = GluN1^FATL/3A receptors (Rattus norvegicus, UniProt Q9R1M7); test: Two-electrode voltage-clamp at GluN1^FATL/3A receptors; assay type: cell-based; details: for activation of current responses at GluN1^FATL/3A: 10 μM analog alone; for inhibition of responses to Gly at GluN1^FATL/3A: 10 μM analog in presence of Gly
Sequence of GluN1^FATL/3A receptors (Q9R1M7 24-1115 isoform Q9R1M7-2 limits assumed, other chains not shown): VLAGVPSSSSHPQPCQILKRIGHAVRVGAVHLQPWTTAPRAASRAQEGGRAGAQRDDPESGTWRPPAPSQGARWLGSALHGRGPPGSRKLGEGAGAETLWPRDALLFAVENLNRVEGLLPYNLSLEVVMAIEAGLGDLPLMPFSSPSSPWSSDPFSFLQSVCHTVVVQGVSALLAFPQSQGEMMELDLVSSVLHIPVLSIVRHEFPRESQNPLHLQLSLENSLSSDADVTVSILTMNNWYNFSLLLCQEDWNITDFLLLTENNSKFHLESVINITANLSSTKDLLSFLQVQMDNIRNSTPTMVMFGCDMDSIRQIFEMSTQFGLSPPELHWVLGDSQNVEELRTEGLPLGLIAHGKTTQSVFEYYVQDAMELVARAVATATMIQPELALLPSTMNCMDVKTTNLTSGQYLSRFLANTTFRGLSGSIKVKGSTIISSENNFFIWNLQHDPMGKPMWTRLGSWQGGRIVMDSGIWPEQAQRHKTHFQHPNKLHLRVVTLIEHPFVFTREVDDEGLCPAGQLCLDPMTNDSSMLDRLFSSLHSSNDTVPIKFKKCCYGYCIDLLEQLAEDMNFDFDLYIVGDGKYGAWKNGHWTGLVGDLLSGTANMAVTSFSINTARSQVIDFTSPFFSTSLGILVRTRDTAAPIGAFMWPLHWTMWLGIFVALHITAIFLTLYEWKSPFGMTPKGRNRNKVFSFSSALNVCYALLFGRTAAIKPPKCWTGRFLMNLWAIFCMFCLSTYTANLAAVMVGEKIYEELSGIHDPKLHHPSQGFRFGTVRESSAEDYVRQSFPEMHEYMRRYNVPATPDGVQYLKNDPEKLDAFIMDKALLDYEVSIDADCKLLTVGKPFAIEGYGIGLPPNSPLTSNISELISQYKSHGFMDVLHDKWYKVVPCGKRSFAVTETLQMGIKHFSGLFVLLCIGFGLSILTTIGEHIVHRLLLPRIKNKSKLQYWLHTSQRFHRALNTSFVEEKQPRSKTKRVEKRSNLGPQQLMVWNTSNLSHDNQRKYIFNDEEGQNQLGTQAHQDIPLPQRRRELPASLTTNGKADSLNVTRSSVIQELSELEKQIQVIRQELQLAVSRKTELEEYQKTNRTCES

GluN1^FATL/3B receptors = GluN1^FATL/3B receptors (Rattus norvegicus, UniProt Q8VHN2); test: Two-electrode voltage-clamp at GluN1^FATL/3B receptors; assay type: cell-based; details: for activation of current responses at GluN1^FATL/3B: 10 μM analog alone; for inhibition of responses to Gly at GluN1^FATL/3B: 10 μM analog in presence of Gly
Sequence of GluN1^FATL/3B receptors (Q8VHN2 25-1002, other chains not shown): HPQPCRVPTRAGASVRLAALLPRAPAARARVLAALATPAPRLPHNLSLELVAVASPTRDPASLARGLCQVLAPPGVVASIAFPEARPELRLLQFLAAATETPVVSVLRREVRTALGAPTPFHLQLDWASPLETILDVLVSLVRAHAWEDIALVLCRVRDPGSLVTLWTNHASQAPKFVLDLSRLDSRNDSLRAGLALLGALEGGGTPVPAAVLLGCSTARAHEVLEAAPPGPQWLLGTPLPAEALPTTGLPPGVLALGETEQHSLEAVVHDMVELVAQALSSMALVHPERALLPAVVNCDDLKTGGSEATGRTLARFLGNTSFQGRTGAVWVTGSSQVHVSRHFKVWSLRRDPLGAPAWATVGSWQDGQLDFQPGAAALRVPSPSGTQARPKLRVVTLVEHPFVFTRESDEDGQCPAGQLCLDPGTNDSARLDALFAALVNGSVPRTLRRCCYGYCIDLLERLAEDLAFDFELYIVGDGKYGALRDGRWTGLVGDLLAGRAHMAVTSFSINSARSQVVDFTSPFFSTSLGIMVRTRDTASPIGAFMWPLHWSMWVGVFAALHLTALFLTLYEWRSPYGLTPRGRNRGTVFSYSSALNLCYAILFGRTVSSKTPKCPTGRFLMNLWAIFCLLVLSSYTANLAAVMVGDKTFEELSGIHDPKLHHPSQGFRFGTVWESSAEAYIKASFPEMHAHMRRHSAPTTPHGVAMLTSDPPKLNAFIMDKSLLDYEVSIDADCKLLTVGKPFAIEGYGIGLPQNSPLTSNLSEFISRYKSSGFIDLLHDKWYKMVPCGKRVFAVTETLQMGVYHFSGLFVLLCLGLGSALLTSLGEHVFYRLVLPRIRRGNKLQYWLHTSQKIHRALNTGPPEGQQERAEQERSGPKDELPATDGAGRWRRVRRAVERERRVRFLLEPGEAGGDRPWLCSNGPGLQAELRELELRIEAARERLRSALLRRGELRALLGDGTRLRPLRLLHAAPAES

GluN1/2A NMDA receptor = GluN1/2A NMDA receptor (Rattus norvegicus, UniProt P35439); assay type: cell-based
GluN1/2A-V783L = GluN1/2A-V783L (Rattus norvegicus, UniProt P35439); test: Two-electrode voltage-clamp at mutated GluN1/2A-V783L receptors; assay type: cell-based; details: 10 μM analog; 300 μM L-Glu
GluN1/2A-V783F = GluN1/2A-V783F (Rattus norvegicus, UniProt P35439); test: Two-electrode voltage-clamp at mutated GluN1/2A-V783F receptors; assay type: cell-based; details: 10 μM analog; 300 μM L-Glu
GluN1/2B-F784L = GluN1/2B-F784L (Rattus norvegicus, UniProt P35439); test: Two-electrode voltage-clamp at mutated GluN1/2B-F784L receptors; assay type: cell-based; details: 10 μM analog; 300 μM L-Glu
GluN1/2B-F784V = GluN1/2B-F784V (Rattus norvegicus, UniProt P35439); test: Two-electrode voltage-clamp at mutated GluN1/2B-F784V receptors; assay type: cell-based; details: 10 μM analog; 300 μM L-Glu
[2] = maximal response compared to Gly

Row | SMILES | agonist activity at GluN1/2B (in words) (GluN1/2B NMDA receptor) | agonist activity at GluN1/2D (in words) (GluN1/2D NMDA receptor) | current response to analog alone at GluN1/2B (GluN1/2B NMDA receptor) | Ki [1] | activation of current responses at GluN1^FATL/3A (GluN1^FATL/3A receptors) | inhibition of responses to Gly at GluN1^FATL/3A (GluN1^FATL/3A receptors) | activation of current responses at GluN1^FATL/3B (GluN1^FATL/3B receptors) | inhibition of responses to Gly at GluN1^FATL/3B (GluN1^FATL/3B receptors) | other results
1 | CCc1ccccc1-c1cccc2[nH]c(C(=O)NC[C@@H](N)C(=O)O)cc12 [AICP, (R)-2-Amino-3-(4-(2-ethylphenyl)-1H-indole-2-carboxamido)propanoic acid] | – | – | – | – | – | – | – | – | Rmax at GluN1/2A (GluN1/2A; [2]): 100%; EC50 (GluN1/2A; read-out: EC50 at GluN1/2A, full agonism): 66 nM; Rmax at GluN1/2B (GluN1/2B; [2]): 10%; EC50 (GluN1/2B; read-out: EC50 at GluN1/2B, partial agonist): 25 nM; Rmax at GluN1/2C (GluN1/2C; [2]): 353%; EC50 (GluN1/2C; read-out: EC50 at GluN1/2C, superagonism): 1.7 nM; Rmax at GluN1/2D (GluN1/2D; [2]): 27%; EC50 (GluN1/2D; read-out: EC50 at GluN1/2D, partial agonist): 25 nM
2 | N[C@H](CNC(=O)c1ccc(-c2ccccc2C(F)(F)F)o1)C(=O)O [Compound 8d, (R)-2-Amino-3-(5-(2-(trifluoromethyl)phenyl)furan-2-carboxamido)propanoic acid] | no agonist activity | no agonist activity | – | – | – | – | – | – | –
3 | CCc1ccccc1-c1ccc(C(=O)NC[C@@H](N)C(=O)O)o1 [Compound 8h, (R)-2-Amino-3-(5-(2-ethylphenyl)furan-2-carboxamido)propanoic acid] | no agonist activity | – | unable to activate any current responses; also recorded: No responses | ~100 nM | No responses; also recorded: did not activate current responses | did not inhibit responses to Gly | No responses; also recorded: did not activate current responses | did not inhibit responses to Gly | –
4 | N[C@H](CNC(=O)c1ccc(-c2ccc(Cl)cc2[N+](=O)[O-])o1)C(=O)O [Compound 8p, (R)-2-amino-3-(5-(4-chloro-2-nitrophenyl)furan-2-carboxamido)propanoic acid] | virtually no agonist activity | virtually no agonist activity | unable to activate any current responses; also recorded: No responses | ~100 nM | No responses; also recorded: did not activate current responses | did not inhibit responses to Gly | No responses; also recorded: did not activate current responses | did not inhibit responses to Gly | agonist activity at GluN1/2A (in words) (GluN1/2A NMDA receptor): virtually no agonist activity; maximal response relative to Gly at GluN1/2A-V783L versus wild type (GluN1/2A-V783L): reduced the maximal response; maximal response relative to Gly at GluN1/2A-V783F versus wild type (GluN1/2A-V783F): reduced the maximal response; maximal response relative to Gly at GluN1/2B-F784L versus wild type (GluN1/2B-F784L): did not significantly increase the maximal response; maximal response relative to Gly at GluN1/2B-F784V versus wild type (GluN1/2B-F784V): did not significantly increase the maximal response
